From patent publication US20260159512A1, “BCAT2 INHIBITORS” (AGIOS PHARMACEUTICALS, INC., priority 2021, published 2026) come the findings set out here.

Structures are written as SMILES.

What is called IC50 is the point on the concentration scale where inhibition reaches its midpoint.

The target in assay [1] is T1, BCAT2 (Homo sapiens, UniProt O15382).
T1 sequence (O15382 28-392): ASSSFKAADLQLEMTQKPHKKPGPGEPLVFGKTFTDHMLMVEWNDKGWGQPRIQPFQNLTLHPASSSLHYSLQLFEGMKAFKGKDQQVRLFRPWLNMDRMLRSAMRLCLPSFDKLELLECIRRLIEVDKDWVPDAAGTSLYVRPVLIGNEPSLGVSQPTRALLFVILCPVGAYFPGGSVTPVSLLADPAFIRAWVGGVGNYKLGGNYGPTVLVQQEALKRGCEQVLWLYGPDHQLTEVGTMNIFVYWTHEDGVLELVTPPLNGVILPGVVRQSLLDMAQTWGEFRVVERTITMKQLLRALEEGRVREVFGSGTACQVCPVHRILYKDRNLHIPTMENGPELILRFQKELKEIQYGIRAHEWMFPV
The assay can be described thus: BCAT2 in vitro enzyme inhibition assay (resazurin/diaphorase-coupled fluorescence). It is filed as biochemical. The note with it: average where tested multiple times. As for the experimental part: BCAT2 In Vitro Enzyme Inhibition Assay
1.67× hBCAT2 Enzyme Mix: 0.33 μg/mL hBCAT2, 1× Buffer
2.5× Substrate Mix: 460 μM L-leucine, 420 μM α-KetoGlutarate, 10 U/mL glutamate dehydrogenase, 10 mM NAD, 30 μg/mL diaphorase, 20 μm Resazurin
BCAT2 enzyme stock solution was diluted to prepare a 1.67× hBCAT2 Enzyme Mix. 1 μL of test compound was first added to the reaction wells followed by 30 μL of 1.67× hBCAT2 Enzyme Mix and incubated at room temperature (25° C.) for one hour. Meanwhile the Substrate Mix was prepared. The reaction was initiated by the addition of 20 μL of the 2.5× Substrate Mix, bringing the final reaction mix of all components to 1×. Reactions were quenched after one hour by the addition of 25 μL of 6% SDS and reaction progress was measured via fluorescence read (Ex 540/Em 590).
Test Compound Preparation:
Test compounds were prepared at 50× final concentration in DMSO, 1 to 3 dilutions were made for 10 points. The compounds were added to the assay as a 1 to 50 dilution (1 μL in 50 μL) to yield a top assay final concentration of 100 μM, decreasing 3-fold for 10 points. Each compound dilution series test also included an assay max (1 μL DMSO Added in lieu of compound, Full Reaction Components Included) and Min (1 μL DMSO Added in lieu of compound, 30 μl of 1.67× hBCAT2 Enzyme Mix replated by 30 μL of 1× Buffer). All tests were performed in technical duplicate.
Where a compound was tested multiple times, the average value of the tests is reported.
(In general: Resazurin is reduced to fluorescent resorufin, in cell work by metabolically active cells.)

Assay [2] concerns the target T1, BCAT2. In words: BCAT2 in vitro cell inhibition using engineered A549 cells (KMV cell assay, 13C6-KMV by LC-MS/MS). The note with it: average where tested multiple times. Set-up: The result was an engineered A549 cell line that expressed endogenous BCAT2; endogenous in cells; host or cells: A549 cells with MUT and BCAT1 knocked out by CRISPR/CAS9; key to BCAT2 Cell Inhibition: A: less than or equal to 0.100 μM; B: greater than 0.100 and less than or equal to 0.500 μM; C: greater than 0.500 and less than or equal to 1.000 μM; d: greater than 1.000 μM; E: no fit. The assay is classed as cell-based.

On to `CO[C@@H]1C[C@@H](NC(=O)c2ncc(Cl)s2)C[C@@H](n2c(CC(C)C)nc3cnc(-c4ncc(C)o4)cc32)C1` (single isomer, unassigned) [Example 428], for which the IC50 against BCAT2 [1] was above 1000 nM. Besides, on BCAT2 [2], the “BCAT2 Cell Inhibition” value was “E”.

`CC(C)Oc1nc2cnc(-n3ccnn3)cc2n1[C@@H]1CCC[C@H](NC(=O)c2ncc(C(F)F)s2)C1` [Example 97, 5-(difluoromethyl)-N-((1S,3R)-3-(2-isopropoxy-6-(1H-1,2,3-triazol-1-yl)-1H-imidazo[4,5-c]pyridin-1-yl)cyclohexyl)thiazole-2-carboxamide] displayed a half-inhibitory concentration (IC50) against BCAT2 [1] above 1000 nM. Also, on BCAT2 [2], the “BCAT2 Cell Inhibition” value was “E”.

In the case of `CO[C@@H]1C[C@@H](NC(=O)c2ncc(Cl)s2)C[C@@H](n2c(-c3ccccc3F)nc3cnc(-c4nc[nH]n4)cc32)C1` (single isomer, unassigned) [Example 219], the IC50 against BCAT2 [1] is 100 to 500 nM; on BCAT2 [2], above 1000 nM.

`CC(C)Cc1nc2cnc(N3CCC[C@@H]3C(C)(C)O)cc2n1[C@@H]1CCC[C@H](NC(=O)c2ncc(Cl)s2)C1` [Example 304, 5-chloro-N-((1S,3R)-3-(6-((R)-2-(2-hydroxypropan-2-yl)pyrrolidin-1-yl)-2-isobutyl-1H-imidazo[4,5-c]pyridin-1-yl)cyclohexyl)thiazole-2-carboxamide]: the 50% inhibitory concentration (IC50) against BCAT2 [1] was above 1000 nM. Besides, the “BCAT2 Cell Inhibition” value on BCAT2 [2] is recorded as “E”.

Compound `CC(=O)N[C@@H](c1nc2cnc(-c3nc[nH]n3)cc2n1[C@@H]1CCC[C@H](NC(=O)c2ncc(Cl)s2)C1)C(C)C` [Example 369, N-((1S,3R)-3-(2-((R)-1-acetamido-2-methylpropyl)-6-(1H-1,2,4-triazol-3-yl)-1H-imidazo[4,5-c]pyridin-1-yl)cyclohexyl)-5-chlorothiazole-2-carboxamide] returned an IC50 against BCAT2 [1] of 500 to 1000 nM. The “BCAT2 Cell Inhibition” value at BCAT2 [2] is “E”.

As to `CC(C)Cc1nc2cnc(-n3cc(F)cn3)cc2n1[C@H]1CCC[C@@H](NC(=O)c2ncc(Cl)s2)[C@@H]1O` [Example 231, 5-chloro-N-((1R,2S,3S)-3-(6-(4-fluoro-1H-pyrazol-1-yl)-2-isobutyl-1H-imidazo[4,5-c]pyridin-1-yl)-2-hydroxycyclohexyl)thiazole-2-carboxamide], the IC50 against BCAT2 [1] is above 1000 nM. Also, the “BCAT2 Cell Inhibition” value on BCAT2 [2] was “E”.

Turning to `CC(C)Cc1nc2cnc(-c3ccccc3C#N)cc2n1[C@@H]1CCC[C@H](NC(=O)c2ncc(Cl)s2)C1` [Example 335, 5-chloro-N-((1S,3R)-3-(6-(2-cyanophenyl)-2-isobutyl-1H-imidazo[4,5-c]pyridin-1-yl)cyclohexyl)thiazole-2-carboxamide], at BCAT2 [1], the IC50 was 100 to 500 nM. In addition, the “BCAT2 Cell Inhibition” value at BCAT2 [2] was “E”.

With `O=C(N[C@@H]1C[C@@H](O)C[C@H](n2c(-c3ccccc3F)nc3cnc(-c4ncco4)cc32)C1)c1ncc(Cl)s1` [Example 261, 5-chloro-N-((1S,3R,5R)-3-(2-(2-fluorophenyl)-6-(oxazol-2-yl)-1H-imidazo[4,5-c]pyridin-1-yl)-5-hydroxycyclohexyl)thiazole-2-carboxamide], the values for the IC50 on BCAT2 [1] and at BCAT2 [2] were 100 to 500 nM and above 1000 nM, respectively.

`CC(=O)N1CC(NC(=O)c2ccc(Br)s2)CC(n2c(-c3ccccn3)nc3ccc(-c4nnco4)cc32)C1` (centres unmarked) [Example 285, N-(5-(6-(1,3,4-oxadiazol-2-yl)-2-(pyridin-2-yl)-1H-benzo[d]imidazol-1-yl)-1-acetylpiperidin-3-yl)-5-bromothiophene-2-carboxamide] came in with an IC50 at BCAT2 [1] of at most 100 nM.

As to `O=C(NC1COCC(n2c(-c3ncccc3F)nc3cnc(-n4ccnn4)cc32)C1)c1ncc(C(F)F)s1` (single isomer, unassigned) [Example 145, 5-(difluoromethyl)-N-(5-(2-(3-fluoropyridin-2-yl)-6-(1H-1,2,3-triazol-1-yl)-1H-imidazo[4,5-c]pyridin-1-yl)tetrahydro-2H-pyran-3-yl)thiazole-2-carboxamide], at BCAT2 [1], the IC50 was above 1000 nM.

As to `CO[C@H]1C[C@H](NC(=O)c2ncc(Cl)s2)C[C@H](n2c(-c3ccccc3F)nc3cnc(-n4nccn4)cc32)C1` (stereo in doubt) [Example 423, 5-chloro-N-((1R,3S,5S)-3-(2-(2-fluorophenyl)-6-(2H-1,2,3-triazol-2-yl)-1H-imidazo[4,5-c]pyridin-1-yl)-5-methoxycyclohexyl)thiazole-2-carboxamide], at BCAT2 [1], the IC50 lay within 500 to 1000 nM.

Compound `CC(C)[C@@H](N)c1nc2cnc(-c3ccccn3)cc2n1[C@@H]1CCC[C@H](NC(=O)c2ncc(Cl)s2)C1` [Example 167, N-((1S,3R)-3-(2-((R)-1-amino-2-methylpropyl)-6-(pyridin-2-yl)-1H-imidazo[4,5-c]pyridin-1-yl)cyclohexyl)-5-chlorothiazole-2-carboxamide] had an IC50 at BCAT2 [1] of 100 to 500 nM.

On BCAT2 [1], `CO[C@H]1C[C@H](NC(=O)c2ncc(Cl)s2)C[C@H](n2c(-c3ccccc3C#N)nc3cnc(-c4nc[nH]n4)cc32)C1` (stereo in doubt) [Example 445, 5-chloro-N-((1R,3S,5S)-3-(2-(2-cyanophenyl)-6-(1H-1,2,4-triazol-3-yl)-1H-imidazo[4,5-c]pyridin-1-yl)-5-methoxycyclohexyl)thiazole-2-carboxamide] had an IC50 of 100 to 500 nM.

For `O=C(N[C@H]1CCC[C@@H](n2c(-c3ccccc3F)nc3cnc(-n4ccccc4=O)cc32)C1)c1ncc(Cl)s1` [Example 357, 5-chloro-N-((1S,3R)-3-(2-(2-fluorophenyl)-6-(2-oxopyridin-1(2H)-yl)-1H-imidazo[4,5-c]pyridin-1-yl)cyclohexyl)thiazole-2-carboxamide], at BCAT2 [1], the IC50 was 500 to 1000 nM.

Take `CC(=O)Cc1nc2cnc(-c3ccccn3)cc2n1[C@@H]1CCC[C@H](NC(=O)c2ncc(Cl)s2)C1` [Example 362, 5-chloro-N-((1S,3R)-3-(2-(2-oxopropyl)-6-(pyridin-2-yl)-1H-imidazo[4,5-c]pyridin-1-yl)cyclohexyl)thiazole-2-carboxamide]: at BCAT2 [1], the IC50 is above 1000 nM.

`CC(C)Cc1nc2cnc(-c3ccn(C(F)F)n3)cc2n1[C@H]1C[C@H](O)C[C@@H](NC(=O)c2ncc(Cl)s2)C1` (single isomer, unassigned) [Example 212] gave an IC50 on BCAT2 [1] above 1000 nM.

At BCAT2 [1], `CO[C@H]1C[C@H](NC(=O)c2ncc(Cl)s2)C[C@H](n2c(CC(C)C)nc3cnc(-c4ccccn4)cc32)C1` (stereo in doubt) [Example 425, 5-chloro-N-((1R,3S,5S)-3-(2-isobutyl-6-(pyridin-2-yl)-1H-imidazo[4,5-c]pyridin-1-yl)-5-methoxycyclohexyl)thiazole-2-carboxamide] registered an IC50 above 1000 nM.

Turning to `CO[C@@H]1C[C@@H](NC(=O)c2ncc(Cl)s2)C[C@@H](n2c(CC(C)C)nc3cnc(-n4nccn4)cc32)C1` (single isomer, unassigned) [Example 422], the half-inhibitory concentration (IC50) on BCAT2 [1] is above 1000 nM.

As for `CC(C)Cc1nc2cnc(-c3ccn(C)n3)cc2n1[C@H]1CCC[C@@H](NC(=O)c2ncc(Cl)s2)[C@@H]1O` [Example 224, 5-chloro-N-((1R,2S,3S)-2-hydroxy-3-(2-isobutyl-6-(1-methyl-1H-pyrazol-3-yl)-1H-imidazo[4,5-c]pyridin-1-yl)cyclohexyl)thiazole-2-carboxamide], the IC50 on BCAT2 [1] is above 1000 nM.

With `O=C(N[C@H]1C[C@@H](n2c(-c3ccccc3F)nc3cnc(-c4nc[nH]n4)cc32)CS(=O)(=O)C1)c1ccc(Cl)s1` [Example 457, 5-chloro-N-((3S,5R)-5-(2-(2-fluorophenyl)-6-(1H-1,2,4-triazol-3-yl)-1H-imidazo[4,5-c]pyridin-1-yl)-1,1-dioxidotetrahydro-2H-thiopyran-3-yl)thiophene-2-carboxamide], the IC50 at BCAT2 [1] is 100 to 500 nM.

At BCAT2 [1], `[N-]=[N+]=N[C@@H]1[C@@H](NC(=O)c2ncc(Cl)s2)CCC[C@H]1n1c(-c2ccccc2F)nc2cnc(-c3nc[nH]n3)cc21` [Example 449, N-((1S,2R,3R)-2-azido-3-(2-(2-fluorophenyl)-6-(1H-1,2,4-triazol-3-yl)-1H-imidazo[4,5-c]pyridin-1-yl)cyclohexyl)-5-chlorothiazole-2-carboxamide] gave an IC50 of at most 100 nM.
